Assays:
[1] = daily release or elution of Bimatoprost in vitro versus time (FIG. 8); assay type: physicochemical; settings: four-hundred-day study
Description: FIG. 8 is an exemplary graph of daily release or elution of a pharmaceutical or therapeutic agent in vitro versus time. […] The target release rate in this study on rabbits was 0.050 to 0.100 micrograms per day.

[2] = Bimatoprost sampled in the aqueous humor of dogs over time (FIG. 9); assay type: in vivo
Description: FIG. 9 is an exemplary graph of a therapeutic agent delivered to the aqueous humor of an eye of canines versus time.
In this example, there was a low dose group of dogs (Grp 1), a mid-dose group of dogs (Grp 2), a high dose group of dogs (Grp 3), and a placebo group of dogs (Grp 4).

- level of Bimatoprost in the aqueous humor, elution order ([2]; low dose (Grp 1), mid-dose (Grp 2), high dose (Grp 3), study period about one hundred thirteen days): zero-order elution rate
- mean measurements of Bimatoprost in the aqueous humor versus dose ([2]; low, mid and high dose groups, sampled in ng/mL): increased with the higher doses
SMILES: CCNC(=O)CCC/C=C\C[C@@H]1[C@@H](/C=C/[C@@H](O)CCc2ccccc2)[C@H](O)C[C@@H]1O [Bimatoprost]
- release rate order over time [1]: essentially a zero-order and/or a steady state elution rate
